Measurements: patent publication US8017135B1, “Lipid-drug conjugates for local therapy of eye diseases” (The Regents of the University of California, priority 2003, dated 2011)
Several values for one entry are separate records, joined by “and”; a condition that tells them apart may be missing. Equal values may be shown once. Entries after “also recorded” stand apart in the source; their conditions may differ.

Assays:
[1] = literature comparison; cited from earlier work
[2] = system: HSV-1; assay: HSV-1 rabbit retinitis pretreatment study; format: in vivo; conditions: for rabbits that developed retinitis: 3-week pretreatment, 100 μg/eye or equivalent dose
Procedure: (§1) For the pharmacokinetic studies, the highest non toxic dose from the results of the toxicity studies, 100 μg/eye, was intravitreally injected into 24 eyes of 16 rabbits, and the remaining 8 eyes were injected with the same volume of 5% dextrose as control. Two animals, 3 eyes with drug and 1 eye with 5% dextrose, were used at each time point. The time points used were post-injections on day 1, day 3, week 1, week 2, week 3, week 5, week 8, and week 10. After animal sacrifice, globes were enucleated and kept on ice before freezing and dissecting. The globes were then submerged in −40 C.° 2-methylbutane in a beaker sitting in a dry ice ethanol bath for 30 seconds. The frozen globe was cut into two halves through the optic nerve and further dissected under a surgical microscope to separate the vitreous and retina. These different tissues from the same eyes were separately stored in the pre-weighed and pre-labeled glass vials. The vials were kept in −70 C for HPLC analysis. 3. HSV-1 rabbit retinitis treatment study of HDP-cCDV: For the retinitis intervention study, 72 rabbits were used, including 14 rabbits for the treatment study and 58 for the pretreatment study. Only the right eye of each rabbit was used. Ophthalmoscopic retinitis grading was performed using a previously reported method with a standardized grading scheme.^7 For the treatment study, the right eyes of 14 rabbits were intravitreally injected with 0.06 mL of a 5×10^−5 dilution of 10^−7.6 mean tissue culture infective dose (TCID 50)/mL HSV-1. When retinitis developed and reached grade 1 (earliest detected retinitis grade: 1 or 2), 5 infected eyes received 100 micrograms of HDP-cCDV in 0.1 mL 5% dextrose, 4 infected eyes received an equivalent dose of free CDV, and the other 5 infected eyes received 5% dextrose. For the pretreatment study, 100 μg/eye was tested. 58 rabbits were divided into four groups: the 21 day, 42 day, 68 day, and 98 day groups. 15 rabbits were used for each time point of the pretreatment study (except 13 rabbits were used for the 98 day time point). At each time point 5 rabbits received 100 micrograms (in 0.1 ml 5% dextrose) of HDP-cCDV, 5 rabbits received an equivalent dose of CDV, and 5 rabbits received 5% dextrose (for the 98 day pre-treatment only 3 rabbits were used for HDP-cCDV). The HSV-1 virus dose, injection method, and clinical retinitis grading were done as previously described.^2,7 Rabbits were killed 2 weeks after development of retinitis. Retinitis was graded on day 3, 5, 7, 9, 11, 14. Rabbits without retinitis 3 or 4 weeks after HSV-1 inoculation were sacrificed.
For the 3-week pretreatment study, all five rabbits that received intravitreal injection of 5% dextrose developed typical retinitis. In contrast, none of the rabbits that received the intravitreal injection of HDP-cCDV or CDV developed retinitis (Table 1). For the 47-day pretreatment, at day 7 after virus inoculation all control eyes developed retinitis with a median grade of 4. […] In contrast, out of 5 rabbits that received HDP-cCDV pretreatment, only 2 developed grade 2 retinitis. There is a significant difference in retinitis scores between HDP-cCDV pretreated eyes and CDV pretreated eyes or control eyes (p<0.05, Nonparametric Tukey-type tests). […] The other two groups (10 eyes) with dextrose or CDV pretreatment all had grade 4 retinitis. The difference in retinitis scores among the three groups was very significant (P=0.0046, Kruskal-Wallis Tests) (Table 1). For the 100-day pretreatment study, one of four rabbits in the HDP-cCDV pretreated group died before virus inoculation. […] The HDP-cCDV pretreated group had lower retinitis scores than the retinitis scores in the dextrose pretreated group (P<0.05, Nonparametric Tukey-type tests).

[3] = system: HSV-1; assay: HSV-1 rabbit retinitis treatment study; format: in vivo; conditions: intravitreal drug after induction of retinitis; for thickness of the retina (histology): 5% dextrose eyes 46 μm, P<0.05
Procedure: as §1
4. Histologic evaluation of retinal damage and choroidal inflammation for the rabbit eyes in the treatment group. […] Thickness was measured with a reticule installed in the eyepiece of the microscope. […]

[4] = system: HSV-1; conditions: single intravitreal injection; cited from earlier work
[5] = HDP-P-Ara G intravitreal toxicity
[6] = system: laser induced rat CNV; assay: Prophylactic treatment of laser induced rat CNV (fluorescein angiograph); format: in vivo
Source text: The retina was normal elsewhere.
Ara-G has been used as an antiproliferative agent to treat human leukemia and lymphoma.^11,12 Ara-G can cause apoptosis of fast growing cells by incorporating into the cell's DNA to inhibit the proliferation.^13 Normal cells in the retina are differentiated cell populations and are not sensitive to Ara-G. In contrast, abnormal proliferating cells in proliferative vitreoretinopathy experience vigorous DNA synthesis and are sensitive to Ara-G. The lipid prodrug of Ara-G was chosen to be useful to treat proliferative vitreoretinopathy or other intraocular proliferating disorders. […] No intraocular drug toxicity was observed except for the local retina contact induced retinal toxicity from the high dose injections. It was hypothesized that the local retinal toxicity could be eliminated by using small crystalline particles, especially when used in a human eye with a much larger vitreous volume than rabbit (4 ml in human eye versus 1.4 ml in rabbit eye). To quickly gather the therapeutic data of this new compound on proliferation, 3 μg of HDP-P-Ara G (equivalent to 75 μg in the rabbit eye [(25+125)/2]) was injected into the right eye of each rat 3 days before induction of CNV by laser. The drug led to a 39% reduction of leaking laser burns in this CNV rat model (39% versus 66%, p=0.009). […] HDP-P-Ara G could be useful for prevention or treatment of the devastating sight-threatening eye disease, age related macular degeneration.

[7] = previously determined; cited from earlier work
[8] = Intravitreal toxicity of HDP-cCDV; format: in vivo, rabbit
Procedure: All procedures were adherent to the ARVO Statement for the Use of Animals in Ophthalmic and Vision Research Intravitreal pharmacokinetics of small particle formulation of HDP-P-GCV: Three rabbits received 8.85 μmoles of the drug in their right eyes and 2.8 μmoles in the left eye. 2.8 μmole was previously determined to be non toxic.^2 Vitreous sampling was performed on both eyes of each rabbit at post injection week 1, week 2, week 3, week 5, week 8, week 12, and week 15. 50 to 100 μl of vitreous fluid was aspirated and placed in a pre-weighed vial for HPLC analysis of HDP-P-GCV levels as described before. 2. Intravitreal toxicity and pharmacokinetics of HDP-cCDV: For toxicity studies, five doses (10 μg or 0.018 μmole, 55 μg or 0.1 μmole, 100 μg or 0.18 μmole, 550 μg or 1.01 μmole, 1000 μg or 1.84 μmole in 50 μl of 5% dextrose) were tested in 8 rabbits, 16 eyes for 8 weeks. One eye of each animal was injected with drug and the fellow eye was injected with 5% dextrose as the control. Before drug injection, baseline IOP and fundus examination were documented. Drug or 5% dextrose was intravitreally injected into vitreous cavity as previously described.^2 After injection, eyes were monitored with a hand held tonometer (Tonopen, Medtronic, Jacksonville, Fla.), slit-lamp, and indirect ophthalmoscope at day 3, week 1, week 2, week 3, week 5, and week 8. […]

[9] = rabbit, in vivo, 100 ug
Procedure: For the pharmacokinetic studies, the highest non toxic dose from the results of the toxicity studies, 100 μg/eye, was intravitreally injected into 24 eyes of 16 rabbits, and the remaining 8 eyes were injected with the same volume of 5% dextrose as control. Two animals, 3 eyes with drug and 1 eye with 5% dextrose, were used at each time point. The time points used were post-injections on day 1, day 3, week 1, week 2, week 3, week 5, week 8, and week 10. After animal sacrifice, globes were enucleated and kept on ice before freezing and dissecting. The globes were then submerged in −40 C.° 2-methylbutane in a beaker sitting in a dry ice ethanol bath for 30 seconds. The frozen globe was cut into two halves through the optic nerve and further dissected under a surgical microscope to separate the vitreous and retina. These different tissues from the same eyes were separately stored in the pre-weighed and pre-labeled glass vials. The vials were kept in −70 C for HPLC analysis. 3. […] When retinitis developed and reached grade 1 (earliest detected retinitis grade: 1 or 2), 5 infected eyes received 100 micrograms of HDP-cCDV in 0.1 mL 5% dextrose, 4 infected eyes received an equivalent dose of free CDV, and the other 5 infected eyes received 5% dextrose. […]

[10] = Laser light scattering particle size analysis; format: physicochemical; conditions: dry powder, laser diffraction
Procedure: Unmodified HDP-P-GCV and microfluidized HDP-P-GCV were subjected to laser light scattering particle size analysis at Cirrus Pharmaceuticals, Inc., Durham, N.C. Measurements were performed using a HELOS laser diffraction instrument (Sympatec, Lawrenceville, N.J.), equipped with a R3 lens (0.5 to 175 microns).
For each measurement, approximately 100 mg of dry sample was dispersed at a feed rate of 75% using the VIBRI and RODOS attachments set at a main pressure of 4.0 bar and aventury pressure of 100 mbar. The triggering conditions were set to start measurement when channel 25 e 1% and stop when channel 25 d 0.5%. Data were analyzed using the Fraunhoffer method by mean of the WINDOX 3.2 release 4 software. HDP-cCDV: cCDV was prepared from CDV as described previously^3 except that the compound was isolated as the dicyclohexyl-morpholinocarboxamidine salt. The scheme of the synthesis is illustrated in FIG. 1. The purity (greater than 98%) of these compounds used in this study was confirmed by thin layer chromatography, nuclear magnetic resonance spectroscopy, and mass spectroscopy as reported previously.^4,5
An aqueous slurry of HDP-P-GCV was subjected to five consecutive cycles of microfluidization. […] Finally, an untreated formulation of HDP-cCDV powder (Panel C) was also analyzed.

[11] = 47-day pretreatment, day 7 after virus inoculation
[12] = 68-day pretreatment, day 14 following virus inoculation

SMILES: Nc1ccn(C[C@@H](CO)OCP(=O)(O)O)c(=O)n1 [CDV, cidofovir, reference compound]
- vitreous half-life [1]: 20 h
- rabbits that developed retinitis [2]: none
- median retinitis grade [2, 11]: 3
- rabbits that developed retinitis (out of 5) [2, 11]: all developed retinitis
- retinitis grade [2, 12]: 4
- vitreous cloudiness [3]: noticeably less severe than the control eyes
- thickness of the retina (histology) [3]: 95 μm

SMILES: Nc1nc(O)c2ncn(COC(CO)CO)c2n1 [GCV, ganciclovir, reference compound]
- duration of prevention of HSV-1 viral infection of retina [4]: less than one-week protection

SMILES: CCCCCCCCCCCCCCCCOCCCOP(=O)(O)OCC1OC(n2cnc3c(=O)[nH]c(N)nc32)C(O)C1O (stereo not shown) [HDP-P-Ara G, 1-O-hexadecyloxypropyl-phospho-arabinofuranosylguanosine]
- pathology study ([5]; 25 μg intravitreal injections): no toxicity
- pathology study ([5]; 125 μg intravitreal injections): localized retinal structural disturbance and proliferation or hypertrophy of retinal pigment epithelium
- ERGs ([5]; all eyes including the ones with local retinal toxicity): normal
- clinical toxicity observation ([5]; high dose (125 μg/eye), where drug depot touched the retina): local retinal toxicity that presented as a local retinal disturbance of fundus pigmentation; also recorded: local retinal depigmentation area
- time drug depot was observable ([5]; low dose (25 μg/eye)): 2 weeks
- retinal toxicity in the rat eyes ([6]; 3 μg intravitreal): did not cause any retinal toxicity
- reduction of CNV formation (leaking laser burns) ([6]; 3 μg intravitreal 3 days before laser, versus control eyes): 39%
- burns actively leaking in treated eyes ([6]; 3 μg intravitreal 3 days before laser, control eyes 66%, p=0.009): 40% and 39%

SMILES: CCCCCCCCCCCCCCCCOCCCOP(=O)(O)OCC(CO)OCn1cnc2c(=O)[nH]c(N)nc21 (stereo not shown) [HDP-P-GCV, Hexadecylpropanediol-3-phospho-ganciclovir]
- duration of prevention of HSV-1 viral infection of retina [4]: 20 weeks
- non toxic intravitreal dose [7]: 2.8 µmol

SMILES: CCCCCCCCCCCCCCCCOCCCOP1(=O)COC(Cn2ccc(N)nc2=O)CO1 (stereo not shown) [HDP-cCDV, 1-O-hexadecyloxypropyl-cyclic-cidofovir]
- toxicity findings ([8]; 550 μg/eye and 1000 μg doses, one eye each): local cataract and mild iritis in two eyes
- highest non-toxic dose ([8]; intravitreal injection, 8 weeks observation): 100 μg/eye
- estimated vitreous half-life [9]: 6.3 days
- rabbits that developed retinitis [2]: none
- rabbits that developed retinitis (out of 5) [2, 11]: 2
- retinitis grade of the rabbits that developed retinitis [2, 11]: 2
- retinitis outcome [2, 12]: only two rabbits developed grade 3 and grade 4 retinitis, the other three rabbits had complete protection
- retinitis outcome ([2]; 100-day pretreatment, three rabbits, day 9): one did not develop retinitis, and the other two had grade 3 retinitis
- duration of pharmacologic effect against HSV-1 infection of the rabbit retina ([2]; single intravitreal pretreatment 100 μg/eye): at least 100 days
- vitreous cloudiness [3]: noticeably less severe than the control eyes
- thickness of the retina (histology) [3]: 80 μm
- volume median diameter (×50) [10]: 8.9 microns

SMILES: Nc1ccn(C[C@H]2COP(=O)(O)CO2)c(=O)n1 [cCDV, cyclic cidofovir]
- vitreous half-life [1]: 10 h
